Assay results from patent publication US5221732A, “Antimicrobial magainin modified peptides” (priority 1988, dated 1993).
Where no end group is shown, it is not given here.

What was measured:
[1] = system: Escherichia coli (ATCC 25922); test: Antimicrobial assay, macrodilution broth; format: cell-based; conditions: Escherichia coli (25922); for 50% Minimal inhibitory concentration: 50% inhibition of growth; for 100% Minimal inhibitory concentration: complete inhibition of growth
Method: (§1) The antimicrobial activities of magainin analogues were assayed by macrodilution broth procedure of Jones et al (Jones, R. N., Barry, A. L., Gaven, T. L. and Washington, J. A. in "Manual of Clinical Microbiology", Lennette, D. H. Balows, A., Hausler, W. J. and Shadomy, H. J., eds; fourth edition, American Society for Microbiology, Washington, D.C., 1985) with modifications. Different concentrations of peptides were added to 2 ml of trypticase soy broth (BBL) containing the inocula of the test organisms adjusted to 10^5 and 10^6 CFU/ml. Microbial growth was determined by the increase in OD600, after incubation of the tubes at 35° C. for 6-9 h depending on the growth rate. […] The 50% minimal inhibitory concentration was determined from the plots of growth vs concentration of peptide.

[2] = system: Staphylococcus aureus (ATCC 29213) beta-lactamase(+); test: Antimicrobial assay, macrodilution broth; format: cell-based; conditions: Staphylococcus aureus (29213) beta-lactamase(+); for 50% Minimal inhibitory concentration: 50% inhibition of growth; for 100% Minimal inhibitory concentration: complete inhibition of growth
Method: as §1

[3] = system: Streptococcus faecalis (ATCC 29212); test: Antimicrobial assay, macrodilution broth; format: cell-based; conditions: Streptococcus faecalis (29212); for 50% Minimal inhibitory concentration: 50% inhibition of growth; for 100% Minimal inhibitory concentration: complete inhibition of growth
Method: as §1

[4] = system: Pseudomonas aeruginosa (ATCC 27853); test: Antimicrobial assay, macrodilution broth; format: cell-based; conditions: Pseudomonas aeruginosa (27853); for 50% Minimal inhibitory concentration: 50% inhibition of growth; for 100% Minimal inhibitory concentration: complete inhibition of growth
Method: as §1

[5] = system: Staphylococcus aureus (ATCC 25923) beta-lactamase(-); test: Antimicrobial assay, macrodilution broth; format: cell-based; conditions: Staphylococcus aureus (25923) beta-lactamase(-); for 50% Minimal inhibitory concentration: 50% inhibition of growth; for 100% Minimal inhibitory concentration: complete inhibition of growth
Method: as §1

[6] = system: Streptococcus agalactiae (ATCC 12386); test: Antimicrobial assay, macrodilution broth; format: cell-based; conditions: Streptococcus agalactiae (12386); for 50% Minimal inhibitory concentration: 50% inhibition of growth; for 100% Minimal inhibitory concentration: complete inhibition of growth
Method: as §1

[7] = system: Klebsiella pneumoniae (ATCC 13883); test: Antimicrobial assay, macrodilution broth; format: cell-based; conditions: Klebsiella pneumoniae (13883); for 50% Minimal inhibitory concentration: 50% inhibition of growth; for 100% Minimal inhibitory concentration: complete inhibition of growth
Method: as §1

[8] = system: Gram-positive and Gram-negative bacteria; test: Antimicrobial assay, overall statements; format: cell-based
Method: as §1

[9] = Circular dichroic measurements; format: physicochemical
human erythrocyte = test: Erythrocyte hemolysis assay; format: cell-based
Method: To 75×12 mm borosilicate test tubes containing a predetermined amount of dried peptide in duplicate, 2.5 ml of diluted human erythrocyte suspension (10%, v/v) in isotonic phosphate-buffered saline was added. After gentle mixing and incubation for 10 min at 37° C., tubes were centrifuged at 3000×g for 10 min. The supernatant was separated from cells and debris, diluted if necessary, and OD350 measured. 100% hemolysis was obtained by using 0.1% Triton X-100.

[10] = 40% CF3CH2OH (trifluoroethanol)

Substance	50% Minimal inhibitory concentration [1] [µg/mL]	100% Minimal inhibitory concentration [1] [µg/mL]	50% Minimal inhibitory concentration [2] [µg/mL]	100% Minimal inhibitory concentration [2] [µg/mL]	50% Minimal inhibitory concentration [3] [µg/mL]	100% Minimal inhibitory concentration [3] [µg/mL]	50% Minimal inhibitory concentration [4] [µg/mL]	100% Minimal inhibitory concentration [4] [µg/mL]	50% Minimal inhibitory concentration [5] [µg/mL]	100% Minimal inhibitory concentration [5] [µg/mL]	50% Minimal inhibitory concentration [6] [µg/mL]	100% Minimal inhibitory concentration [6] [µg/mL]	50% Minimal inhibitory concentration [7] [µg/mL]	100% Minimal inhibitory concentration [7] [µg/mL]	growth inhibition of both Gram-positive and Gram-negative bacteria (in words) [8]	% structure calculated from CD spectra, alpha-helix ([9]; 50 mM K-phosphate, pH7) [%]	% structure calculated from CD spectra, beta-sheet ([9]; 50 mM K-phosphate, pH7) [%]	% structure calculated from CD spectra, alpha-helix [9, 10] [%]	% structure calculated from CD spectra, beta-sheet [9, 10] [%]	further results
Ac-GIGKFLHAAKKFAKAFVAEIMNS-NH2 [analogue C]	10	25	7.5	25	5	25	> 100	> 100	10	25	0.5	1	60	100	active	0	48	61	14	growth inhibitory activity toward Gram-negative bacteria ([8]; effect of acetylation of the alpha-amino terminus, versus analogue B): significantly reduced
GIGKFLHAAKKFAKAFVAEIMNS-NH2 [analogue B]	1.2	2.5	5	10	5	10	15	25	5	10	0.25	1	5	10	active	2	44	61	9	
GIGKFLHSAGKFGKAFVGEIMKS [Magainin 1, reference compound]	100	250	500	> 500	360	> 500	430	> 500	360	> 500	60	75	100	250		0	44	24	37	
GIGKFLHSAKKFAKAFVAEIMNS-NH2 [analogue F]	1.2	5	5	10	10	25	25	50	10	25	0.25	1	5	25	active	1	46	63	6	hemolytic activity (in words, comparative) (human erythrocyte): lower hemolytic activity; antimicrobial activity ([8]; effect of omission of replacement at Ser8): only slightly
